{"source": "paper PMC5090206", "about": "“Fluselenamyl: A Novel Benzoselenazole Derivative for PET Detection of Amyloid Plaques (Aβ) in Alzheimer’s Disease” (Scientific Reports, 2016)", "key": {"AD homogenates [1]": {"system": "AD homogenates", "experiment": "Competition of unlabeled ligands against [18F]-9 binding on AD homogenates", "set-up": "species or system human", "conditions": "for displacement of [18F]-9 specific binding: AD homogenates, unlabeled competitor", "procedure": "Literature precedents indicate the presence of at least three different binding sites, characterized as BS1, BS2 and BS3 on the Aβ fibrils in vitro[24] and extracts from AD homogenates. […] Further, to evaluate ability of [^18F]-9 for labeling Aβ in autopsy confirmed human brain sections, autoradiography and immunohistochemical correlations were also performed."}, "AD homogenates [2]": {"target": "AD homogenates", "conditions": "read-out: binding affinity with AD homogenates; cited from earlier work"}, "[3]": {"conditions": "normal mice, cited from earlier work"}, "[4]": {"conditions": "comparison values, no reference given; cited from earlier work"}, "Aβ plaques": {"target": "Aβ plaques (Homo sapiens, UniProt P05067)", "sequence (P05067 672-711 limits assumed)": "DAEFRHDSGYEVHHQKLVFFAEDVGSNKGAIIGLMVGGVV", "experiment": "Histological staining of human AD brain tissue sections", "conditions": "AD frontal lobe sections", "procedure": "To further assess ability of the 5 to label Aβ plaques in human brain, staining experiments were also performed with postmortem tissues from clinically-characterized AD patients[35][36] As a positive control, a highly specific anti-Aβ antibody (10D5, Eli Lilly, Indianapolis, IN) was used to ascertain the presence of Aβ plaques (Fig. 4A), using well-established procedures for assessment of Aβ plaques in postmortem brain[37]. […] Noticeably, 5 also indicated proficient and distinct labeling of plaque and leptomeningeal vessels (cerebral amyloid angiopathy; CAA) (Fig. 4B). […] This high specificity of 5 for Aβ could be attributed to presence of a benzoselenazole ring within Fluselenamyl. Overall, the ability and sensitivity of 5 to detect diffuse plaques and specificity for AD could represent an important advancement to enable PET imaging of mildly demented individuals, prior to onset of symptoms.\nScientific Reports Version of August 4, 2016\nµm) were cut in the coronal plane on a freezing sliding microtome and stored at -20°C. 7,8 Tissue was stained as free-floating sections. Prior to staining, tissue sections were permeabilized with PBS-Tritron-X-100 (0.25%) for 30 minutes, and then blocked with 1% non-fat dry milk in PBS-Ttiton-X-100 for 60 minutes.\nHippocampus tissue sections of APP+/-/PS1+/- and age-matched control BL/6 (WT, SI Figure 3) were incubated with fluorescent molecule 5 (100 nM dissolved in 1% ethanol in PBS) for 60 minutes, and washed 3-times with PBS-Triton-X-100.9 Thereafter, tissue sections were incubated with mouse-anti-Aβ (mHJ3.4) 7 that was directly conjugated to Alexa 568 for 90 minutes and washed 3-times with PBS-Triton-X-100.\nTissue sections were mounted onto SuperFrost Plus slides, dried overnight at room temperature, and then sealed with Fluoromount G (Southern Biotech, Birmingham, AL). […]\nother neurodegenerative diseases (SI, Figure 4A & 4B). Sections were visualized, processed, and analyzed using a Pascal confocal microscope. […]"}}, "note": "Where two headings read alike, the source gives them in different places.", "data": [{"molecule": "[11CH3]Nc1ccc(-c2nc3ccc(O)cc3s2)cc1", "note": "[PiB]", "values": [{"measurement": "displacement of [18F]-9 specific binding", "setting": "AD homogenates [1]", "result": "significant displacement"}]}, {"molecule": "CNc1ccc(-c2nc3ccc(O)cc3s2)cc1F", "note": "[[^18F]-Flutemetamol]", "values": [{"measurement": "Kd", "setting": "AD homogenates [2]", "result": 6.7, "unit": "nM"}]}, {"molecule": "O=C(O)c1cc(/N=N/c2ccc(-c3ccc(/N=N/c4ccc(O)c(C(=O)O)c4)cc3)cc2)ccc1O", "note": "[Chrysamine G]", "values": [{"measurement": "displacement of [18F]-9 specific binding", "setting": "AD homogenates [1]", "result": "no displacement"}]}, {"molecule": "CNc1ccc(/C=C/c2ccc(OCCOCCOCCF)cc2)cc1", "note": "[[^18F]-Florbetaben]", "values": [{"measurement": "Kd", "setting": "AD homogenates [2]", "result": 16, "unit": "nM"}, {"measurement": "%ID/g (brain)", "setting": "[3]; 2 min", "result": 4.77, "unit": "%ID/g"}, {"measurement": "%ID/g (brain)", "setting": "[3]; 4 h", "result": 0.95, "unit": "%ID/g"}, {"measurement": "brain uptake ratio 2 min/4 h", "setting": "[3]", "result": 5.02}, {"measurement": "log P", "setting": "[4]", "result": 3.22}]}, {"molecule": "CN(C)c1ccc(-c2cn3cc(I)ccc3n2)cc1", "note": "[IMPY]", "values": [{"measurement": "displacement of [18F]-9 specific binding", "setting": "AD homogenates [1]", "result": "significant displacement"}, {"measurement": "Ki", "setting": "AD homogenates [1]; competition against [18F]-9 on AD homogenates", "result": 6.3, "unit": "nM"}]}, {"molecule": "Nc1ccc(C=Cc2ccc(OCCOCCOCC[18F])nc2)cc1", "note": "[desmethylated]", "values": [{"measurement": "brain uptake of metabolites of [18F]-AV-45", "setting": "[3]; at 2 min", "result": 4.5, "unit": "% ID/g"}]}, {"molecule": "thioflavin S [reference compound]", "values": [{"measurement": "staining of diffuse plaques", "setting": "Aβ plaques", "result": "only weak staining of diffuse plaques"}]}, {"molecule": "CNc1ccc(/C=C/c2ccc(OCCOCCOCC[18F])nc2)cc1", "note": "[[^18F]-AV-45]", "values": [{"measurement": "%ID/g (brain)", "setting": "[3]; 2 min", "result": "7.33 ± 1.54", "unit": "%ID/g"}, {"measurement": "%ID/g (brain)", "setting": "[3]; 2 h", "result": "1.80 ± 0.07", "unit": "%ID/g"}, {"measurement": "brain uptake ratio 2 min/2 h", "setting": "[3]", "result": 4.07}, {"measurement": "log P", "setting": "[4]", "result": 2.4}]}, {"molecule": "CNc1ccc(/C=C/c2ccc(OCCOCCOCCF)nc2)cc1", "note": "[[^18F]-AV-45]", "values": [{"measurement": "Kd", "setting": "AD homogenates [2]", "result": 3.7, "unit": "nM"}]}]}
